Reference: PubChem BioAssay AID651677 (The Scripps Research Institute Molecular Screening Center, 2012)
Active and inactive are the calls of the source. The rule behind the calls is not given here.

The compounds below were run against Perilipin-5 (Homo sapiens) + 1-acylglycerol-3-phosphate O-acyltransferase ABHD5 (Homo sapiens) (UniProt Q00G26+Q8WTS1) (assay: ABHD5-PLIN5 interaction inhibitors, dose response, biochemical, luminescence (AID 651677)).
Chain of Perilipin-5 (Homo sapiens) + 1-acylglycerol-3-phosphate O-acyltransferase ABHD5 (Homo sapiens) (Q00G26 whole entry, looked up): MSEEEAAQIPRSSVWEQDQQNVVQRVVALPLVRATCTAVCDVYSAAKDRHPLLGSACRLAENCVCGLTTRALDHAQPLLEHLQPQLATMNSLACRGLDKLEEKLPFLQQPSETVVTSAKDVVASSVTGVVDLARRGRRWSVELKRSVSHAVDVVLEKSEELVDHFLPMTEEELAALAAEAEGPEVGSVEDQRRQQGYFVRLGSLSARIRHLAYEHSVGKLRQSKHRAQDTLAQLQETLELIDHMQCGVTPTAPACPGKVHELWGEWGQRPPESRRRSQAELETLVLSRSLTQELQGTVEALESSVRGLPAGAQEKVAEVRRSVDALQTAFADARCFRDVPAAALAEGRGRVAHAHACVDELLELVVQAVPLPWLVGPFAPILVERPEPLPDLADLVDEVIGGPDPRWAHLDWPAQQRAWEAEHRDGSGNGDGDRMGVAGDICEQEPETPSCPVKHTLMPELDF
Chain of Perilipin-5 (Homo sapiens) + 1-acylglycerol-3-phosphate O-acyltransferase ABHD5 (Homo sapiens) (Q8WTS1 whole entry, looked up): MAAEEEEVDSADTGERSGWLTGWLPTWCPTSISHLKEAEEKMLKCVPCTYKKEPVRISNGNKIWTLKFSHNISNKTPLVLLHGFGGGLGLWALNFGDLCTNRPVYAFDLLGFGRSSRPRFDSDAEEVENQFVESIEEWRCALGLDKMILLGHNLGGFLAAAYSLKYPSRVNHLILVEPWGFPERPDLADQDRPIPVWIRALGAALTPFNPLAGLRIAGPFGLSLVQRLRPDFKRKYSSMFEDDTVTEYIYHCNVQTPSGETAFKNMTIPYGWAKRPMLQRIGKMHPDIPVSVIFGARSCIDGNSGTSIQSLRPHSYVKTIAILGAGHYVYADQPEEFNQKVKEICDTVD
Work on `COC/C=C/C1=CC2=CC(=O)C(C)(OC(=O)C3CCCC3)C(=O)C2=CO1` (stereo not given) yielded an IC50 of 1750 nM.
Compound `O=C(/C=C/c1ccc(NC(=O)c2ccccc2-c2ccccc2C(=O)O)cc1)c1ccccc1` has an IC50 of 7140 nM.
Work on `CCC(C)NC(=O)Nc1ccc2c(c1)N(C)C(=O)c1ccccc1S2` (stereo not given) yielded an IC50 of 4970 nM.
`C=CC(=O)N1c2ccccc2Sc2ccc(NC(=O)OCC)cc21` gave an IC50 of 6060 nM.
In the case of `Cc1ccc(C(=O)c2coc3c2C(=O)C(=O)c2ccccc2-3)cc1`, the IC50 is reported as 2530 nM.
`O=c1nc(/C=C/c2ccc(Cl)cc2Cl)cc(C(F)(F)F)[nH]1` was tested, and the IC50 was 3480 nM.
`CC(=O)Cc1cc(O)c2ccccc2c1OC(=O)c1ccccc1` gave an IC50 of 1960 nM.
`Cc1cccc(C)c1NC(=O)C(c1cccc2ccccc12)n1c(=O)c(-c2ccco2)nc2ccccc21` (stereo not given) was tested, and the IC50 was 1810 nM.
In the case of `CC(C)(C)NC(=O)C(c1ccncc1)n1c(=O)c(-c2ccco2)nc2ccccc21` (stereo not given), the IC50 is reported as 3660 nM.
`O=C(NC1CCCCC1)C(c1ccccc1F)n1c(=O)c(-c2ccco2)nc2ccccc21` (stereo not given) was tested, and the IC50 was 1260 nM.
For `COc1ccc(C(C(=O)NC2CCCCC2)n2c(=O)c(-c3ccco3)nc3ccccc32)cc1` (stereo not given), the IC50 was 1140 nM.
With `O=C(Nc1ccc(Cl)cc1)/C(=C/c1cccc(O)c1)c1nc2ccccc2s1` the IC50 was 2100 nM.
In the case of `CC(C)c1ccc(N2C=Nc3ccc(C(C)C)cc3C2)cc1`, the IC50 is reported as “inactive”.
In the case of `O=C(O)CC(O)(CC(=O)O)C(=O)O`, the IC50 is reported as 5630 nM.
`CCCCCNC(=O)C(c1cccc2ccccc12)n1c(=O)c(-c2ccco2)nc2ccccc21` (stereo not given) showed an IC50 of 1570 nM.
For `Cc1ccc(SC2=C(Sc3ccc(C)cc3)C(=O)c3ccccc3C2=O)cc1`, the IC50 was 1000 nM.
Compound `CC(C)(C)NC(=O)C(c1cccc2ccccc12)n1c(=O)c(-c2ccco2)nc2ccccc21` (stereo not given) has an IC50 of 2390 nM.
`C#CCN(C[C@@H]1[C@@H](OC(=O)NCc2ccc(OC)c(OC)c2)[C@@H](OC(=O)NCc2ccc(OC)c(OC)c2)Cn2c(=O)ccc(=O)n21)S(=O)(=O)c1ccc(C)cc1` was tested, and the IC50 was 5250 nM.
For `Cc1oc2c(c1C(=O)c1ccc(Cl)cc1)C(=O)C(=O)c1ccccc1-2`, the IC50 was 1980 nM.
`Cc1cccc(NC(=O)CSc2nnc(-c3ccco3)c(-c3ccco3)n2)c1` showed an IC50 of 1050 nM.
Compound `N#Cc1ccccc1OCc1cn(CC(=O)c2ccc(O)cc2)nn1` has an IC50 of 3680 nM.
In the case of `CC(=O)Nc1ccc(S(=O)(=O)N2c3ccc(F)cc3CCC2C)cc1` (stereo not given), the IC50 is reported as “inactive”.
In the case of `Oc1c(C(c2ccccc2)N2CCCCC2)ccc2ccccc12` (stereo not given), the IC50 is reported as 845 nM.
With `CCN(CC)CCN(CC(=O)Nc1c(C)cc(C)cc1C)C(=O)c1ccccc1` the IC50 was 9740 nM.
Work on `Cc1ccc(/C(O)=C2/C(=O)C(=O)OC2c2ccc(Cl)cc2)cc1` (stereo not given) yielded an IC50 of 9720 nM.
With `Cc1cc(C)c2nc(NNC(=O)c3ccc(S(=O)(=O)N4CCCC(C)C4)cc3)sc2c1` (stereo not given) the IC50 was 5270 nM.
For `CCC(c1nc2ccccc2[nH]1)n1c(=O)c(-c2ccco2)nc2ccccc21` (stereo not given), the IC50 was 3110 nM.
With `O=C(C[n+]1cccc(CNC(=O)c2ccc(OC(F)F)cc2)c1)Nc1cccc(C(F)(F)F)c1` the IC50 was “inactive”.
In the case of `COc1cc(C)c2sc3ccccc3c(=O)c2c1NCCN(C)C`, the IC50 is reported as 3840 nM.
For `CC1=CC(C)(C)Nc2ccc(OC(=O)C(C)N3C(=O)c4ccccc4C3=O)cc21` (stereo not given), the IC50 was 2640 nM.
Compound `CCCCCNC(=O)C(c1ccc(C(F)(F)F)cc1)n1c(=O)c(-c2ccco2)nc2ccccc21` (stereo not given) has an IC50 of 1820 nM.
`CCN1/C(=C/C=C/c2oc3ccc(-c4ccccc4)cc3[n+]2CC)Oc2ccc(-c3ccccc3)cc21` was tested, and the IC50 was 1030 nM.
Compound `COc1ccc(OCc2cn(CC(=O)c3ccc(O)cc3)nn2)cc1` has an IC50 of 3070 nM.
For `O=c1c(-c2ccco2)nc2ccccc2n1C(CCc1ccccc1)c1nc2ccccc2[nH]1` (stereo not given), the IC50 was 1580 nM.
Work on `C#CCN(C[C@@H]1[C@@H](OC(=O)NC2CCCC2)[C@@H](OC(=O)NC2CCCC2)Cn2c(=O)ccc(=O)n21)S(=O)(=O)c1ccc(C)cc1` yielded an IC50 of 3690 nM.
For `CC(=O)Cc1cc(O)c2ccccc2c1OC(=O)c1ccc(Br)cc1`, the IC50 was 2520 nM.
With `COc1cc2c(cc1OC)C(C)N(CCc1ccc(Cl)cc1)CC2` (stereo not given) the IC50 was “inactive”.
Work on `CC(C)(C)NC(=O)C(c1ccccc1)n1c(=O)c(-c2ccco2)nc2ccccc21` (stereo not given) yielded an IC50 of 2160 nM.
`C=C1C(=O)O[C@H]2C[C@H]1[C@@H](OC(C)=O)C/C(C)=C/CC/C(C)=C\CC[C@]2(C)O` gave an IC50 of 1910 nM.
With `C#CCN(C[C@@H]1[C@@H](OC(=O)NCc2ccccc2F)[C@@H](OC(=O)NCc2ccccc2F)Cn2c(=O)ccc(=O)n21)S(=O)(=O)c1ccc(C)cc1` the IC50 was 5040 nM.
`CCOC(=O)N1CCN(C(=O)C[C@@H]2C[C@@]3(C(=O)OCC)CCC=C3N(Cc3ccc(Cl)cc3Cl)C2=O)CC1` was tested, and the IC50 was “inactive”.
Work on `CCOC(=O)c1c(NC(C)=O)sc2c1CCC(C=O)=C2Sc1ccccc1` yielded an IC50 of 2400 nM.
Compound `COc1ccc(C(C(=O)Nc2c(C)cccc2C)n2c(=O)c(-c3ccco3)nc3ccccc32)cc1` (stereo not given) has an IC50 of 2380 nM.
For `Cc1ccc(C)c(/C=C/C(=O)c2ccccc(=O)c2O)c1`, the IC50 was 4050 nM.
`Cc1ccc(CC2(OCCN(C)C)CCC(C(C)(C)C)CC2)cc1` (stereo not given) showed an IC50 of 8610 nM.
For `COC(=O)c1cc(=O)n(Cc2ccco2)c(=Nc2ccc(F)cc2)s1`, the IC50 was 3680 nM.
Work on `CCOC(=O)/C(=C\c1ccc(Cl)cc1)c1nc2sc(C)c(C)c2c(=O)[nH]1` yielded an IC50 of 750 nM.
In the case of `COc1cc(OC)cc(C(=O)NC(=S)N(Cc2ccccc2)C(C)C)c1`, the IC50 is reported as “inactive”.
In the case of `CN1C(=O)/C(=C/C=C/c2ccco2)C(=O)NC1=S`, the IC50 is reported as 2960 nM.
In the case of `COCCN(CCOC)c1nc(N)c2c(N)nc3c(c2c1C#N)CC(=O)N3Cc1ccc(Cl)cc1`, the IC50 is reported as “inactive”.
